# From patent publication US9850283B2, “Macrocyclic inhibitors of the PD-1/PD-L1 and CD80(B7-1)/PD-L1 protein/protein interactions” (BRISTOL-MYERS SQUIBB COMPANY, priority 2013, dated 2017)
# Positions of bridges follow the written chain, without caps; N, C: chain ends. Non-standard residues stand in square brackets, D forms with d. Residues, ends and D or L forms follow the SMILES beside them. ξ: configuration not given here. *: point of attachment. Bip(2'-Me) = Cc1ccccc1-c1ccc(C[C@H](N)C(=O)O)cc1; Trp(5-Cl) = N[C@@H](Cc1c[nH]c2ccc(Cl)cc12)C(=O)O; Trp(7-aza) = N[C@@H](Cc1c[nH]c2ncccc12)C(=O)O; ξTrp(5-F) = NC(Cc1c[nH]c2ccc(F)cc12)C(=O)O; Bip = N[C@@H](Cc1ccc(-c2ccccc2)cc1)C(=O)O; NMeW = CN[C@@H](Cc1c[nH]c2ccccc12)C(=O)O; Pro(4S-NH2) = N[C@@H]1CN[C@H](C(=O)O)C1; Pro(4,4-F2) = O=C(O)[C@@H]1CC(F)(F)CN1; Bta = N[C@@H](Cc1csc2ccccc12)C(=O)O; Cyclobutanecarbonyl = O=C(C1CCC1)*; Hyp = O=C(O)[C@@H]1C[C@@H](O)CN1; NMeNle = CCCC[C@H](NC)C(=O)O; ξR = N=C(N)NCCCC(N)C(=O)O; NMeA = CN[C@@H](C)C(=O)O; Dab = NCC[C@H](N)C(=O)O; Dap = NC[C@H](N)C(=O)O; ξP = O=C(O)C1CCCN1; ξC = NC(CS)C(=O)O; ξS = NC(CO)C(=O)O; Sar = CNCC(=O)O
# Tests used:
# Human PD-L1/PD-1 = target: T1, Human PD-L1/PD-1 (Homo sapiens, UniProt Q9NZQ7); assay: HTRF PD-1-Ig/PD-L1-His binding assay (human PD-L1); settings: cluster symbol; read-out: HTRF IC50 cluster
# T1 construct: made in house; host or cells: HEK293T
# Procedure, shortened: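 HTRF read-out: Eu cryptate anti-Ig mAb 1 nM final, APC anti-His mAb 20 nM final, added over the binding reaction. Proteins were PD-1-Ig and PD-L1-His ectodomain fusions. Buffer was dPBS, 0.1% BSA, 0.05% Tween-20.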
# [1] = target: T2, LK35.2-hPD-L1 cells / PE-labeled PD-1-Ig (Homo sapiens, UniProt Q9NZQ7); assay: LK35.2-hPD-L1 cell binding high-content screening assay; format: cell-based; settings: cluster symbol; cell line of CBA not given (LK35.2-hPD-L1 or 293T-hPD-L1); read-out: CBA IC50 cluster
# T2 construct: expressed in transfected cells; host or cells: LK35.2 mouse B cell line
# Procedure: LK35.2-hPD-L1 Cell Binding High-Content Screening Assay. Phycoerythrin (PE) was covalently linked to the Ig epitope tag of human PD-1-Ig and fluorescently-labeled PD-1-Ig was used for binding studies with a mouse B cell line (LK35.2) stably over-expressing human PD-L1 (LK35.2-hPD-L1). Briefly, 3×10^3 LK35.2-hPD-L1 cells were seeded into 384 well plates in 20 ul of RPMI supplemented with 10% fetal calf serum and cultured overnight. 125 nl of compound was added to cells, followed by 5 ul of PE-labeled PD-1-Ig (1 nM final), diluted in RPMI supplemented with 10% fetal calf serum, followed by incubation at 37° C. for 1 h. […] Cells were washed 3× in 100 ul of dPBS followed by final addition of 15 ul of dPBS. Data was collected and processed using a Cell Insight NXT High Content Imager and associated software.
# T1 sequence (Q9NZQ7 with tags, fused parts or gaps): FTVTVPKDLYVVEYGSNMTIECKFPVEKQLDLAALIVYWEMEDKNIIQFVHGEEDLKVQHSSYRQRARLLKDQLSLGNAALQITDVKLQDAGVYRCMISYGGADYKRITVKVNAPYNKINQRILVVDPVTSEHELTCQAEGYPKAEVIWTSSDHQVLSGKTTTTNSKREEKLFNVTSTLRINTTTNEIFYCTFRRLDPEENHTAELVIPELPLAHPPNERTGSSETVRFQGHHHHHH
# T2 sequence (Q9NZQ7 19-290): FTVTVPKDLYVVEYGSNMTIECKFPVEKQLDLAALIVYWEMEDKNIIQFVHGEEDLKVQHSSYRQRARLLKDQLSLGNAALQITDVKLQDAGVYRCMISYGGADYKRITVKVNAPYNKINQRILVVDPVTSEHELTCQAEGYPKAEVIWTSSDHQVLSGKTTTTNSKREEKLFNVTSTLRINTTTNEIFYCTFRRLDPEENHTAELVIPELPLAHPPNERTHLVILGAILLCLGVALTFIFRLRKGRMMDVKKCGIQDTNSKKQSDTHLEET
Structure (SMILES),IC50 (Human PD-L1/PD-1),IC50 [1]
CCCC[C@H]1C(=O)N(C)[C@@H](CCCC)C(=O)NC(CCCNC(=N)N)C(=O)NC(C(=O)NCC(N)=O)CSCC(=O)N[C@@H](Cc2ccccc2)C(=O)N(C)[C@@H](C)C(=O)N[C@@H](CC(N)=O)C(=O)N2CCCC2C(=O)N[C@@H](Cc2cnc[nH]2)C(=O)N[C@@H](CC(C)C)C(=O)N(C)CC(=O)N[C@@H](Cc2c[nH]c3ccccc23)C(=O)NC(CO)C(=O)N[C@@H](Cc2ccc(-c3ccccc3)cc2)C(=O)N1C (some centres unmarked) [Example 1028] ({CH2CO}-F[NMeA]N[ξP]HL[Sar]W[ξS][Bip][NMeNle][NMeNle][ξR][ξC]G-NH2; thioether N-14),> 30.5 nM,> 74.3 nM
CCCC[C@H]1C(=O)N(C)[C@@H](CCCC)C(=O)NC(CCCNC(=N)N)C(=O)NC(C(=O)NCC(N)=O)CSCC(=O)N[C@@H](Cc2ccccc2)C(=O)N(C)[C@@H](C)C(=O)N[C@@H](CC(N)=O)C(=O)N2CCCC2C(=O)N[C@@H](Cc2cnc[nH]2)C(=O)N[C@@H](CC(C)C)C(=O)N(C)CC(=O)N[C@@H](Cc2c[nH]c3ccccc23)C(=O)NC(CO)C(=O)N[C@@H](Cc2ccc(-c3ccccc3C)cc2)C(=O)N1C (some centres unmarked) [Example 1030] ({CH2CO}-F[NMeA]N[ξP]HL[Sar]W[ξS][Bip(2'-Me)][NMeNle][NMeNle][ξR][ξC]G-NH2; thioether N-14),> 30.5 nM,> 74.3 nM
CCCC[C@H]1C(=O)N[C@@H](CCCNC(=N)N)C(=O)N[C@H](C(=O)NCC(N)=O)CSCC(=O)N[C@@H](Cc2ccccc2)C(=O)N(C)[C@@H](C)C(=O)N[C@@H](CC(N)=O)C(=O)N2CCC[C@H]2C(=O)N[C@@H](Cc2cnc[nH]2)C(=O)N[C@@H](CC(C)C)C(=O)N(C)CC(=O)N[C@@H](Cc2c[nH]c3ccccc23)C(=O)N[C@@H](CO)C(=O)N(C)[C@@H](Cc2c[nH]c3ccccc23)C(=O)N(C)[C@@H](CCCC)C(=O)N1C [Example 1031] ({CH2CO}-F[NMeA]NPHL[Sar]WS[NMeW][NMeNle][NMeNle]RCG-NH2; thioether N-14),> 30.5 nM,> 74.3 nM
"CC(C)C[C@@H]1NC(=O)[C@H](Cc2c[nH]cn2)NC(=O)[C@@H]2CCCN2C(=O)[C@H](CC(N)=O)NC(=O)[C@H](C)N(C)C(=O)[C@H](Cc2ccccc2)NC(=O)CSC[C@@H](C(=O)NCC(N)=O)NC(=O)[C@H](CCCNC(=N)N)NC(=O)[C@H](C)N(C)C(=O)[C@H](Cc2ccc(-c3ccccc3)cc2)NC(=O)[C@H](Cc2c[nH]c3ccccc23)NC(=O)[C@H](CO)NC(=O)[C@H](Cc2c[nH]c3ccccc23)NC(=O)CN(C)C1=O [Example 1032] (HELM PEPTIDE1{[O=C(C[*:3])[*:2]].F.[meA].N.P.H.L.[Sar].W.S.W.[O=C([C@H](Cc1ccc(-c2ccccc2)cc1)N[*:1])[*:2]].[meA].R.C.G.[am]}$PEPTIDE1,PEPTIDE1,1:R3-15:R3$$$V2.0)",> 30.5 nM,> 74.3 nM
CC(C)C[C@@H]1NC(=O)[C@H](Cc2c[nH]cn2)NC(=O)[C@@H]2CCCN2C(=O)[C@H](CC(N)=O)NC(=O)[C@H](C)N(C)C(=O)[C@H](Cc2ccccc2)NC(=O)CSC[C@@H](C(=O)NCC(N)=O)NC(=O)[C@H](CCCNC(=N)N)NC(=O)[C@H](C)N(C)C(=O)[C@H](CNC(=O)C2CCC2)NC(=O)[C@H](Cc2c[nH]c3ccccc23)NC(=O)[C@H](CO)NC(=O)[C@H](Cc2c[nH]c3ccccc23)NC(=O)CN(C)C1=O [Example 1033] ({CH2CO}-F[NMeA]NPHL[Sar]WSW[Dap](Cyclobutanecarbonyl)[NMeA]RCG-NH2; thioether N-14),> 30.5 nM,> 74.3 nM
CC(C)C[C@@H]1NC(=O)[C@H](Cc2cnc[nH]2)NC(=O)[C@@H]2CCCN2C(=O)[C@H](CC(N)=O)NC(=O)[C@H](C)N(C)C(=O)[C@H](Cc2ccccc2)NC(=O)CSC[C@@H](C(=O)NCC(N)=O)NC(=O)[C@H](CCCNC(=N)N)NC(=O)[C@H](C)N(C)C(=O)[C@H](CCNC(=O)C2CCC2)NC(=O)[C@H](Cc2c[nH]c3ccccc23)NC(=O)[C@H](CO)NC(=O)[C@H](Cc2c[nH]c3ccccc23)NC(=O)CN(C)C1=O [Example 1034] ({CH2CO}-F[NMeA]NPHL[Sar]WSW[Dab](Cyclobutanecarbonyl)[NMeA]RCG-NH2; thioether N-14),> 30.5 nM,> 74.3 nM
CCCC[C@H]1C(=O)N(C)[C@@H](CCCC)C(=O)N[C@@H](CCCNC(=N)N)C(=O)N[C@H](C(=O)NCC(N)=O)CSCC(=O)N[C@@H](Cc2ccccc2)C(=O)N(C)[C@@H](C)C(=O)N[C@@H](CC(N)=O)C(=O)N2CCC[C@H]2C(=O)N[C@@H](Cc2cnc[nH]2)C(=O)N[C@@H](CC(C)C)C(=O)N(C)CC(=O)N[C@@H](Cc2c[nH]c3ccccc23)C(=O)N[C@@H](CO)C(=O)N[C@@H](Cc2c[nH]c3ncccc23)C(=O)N1C [Example 1038] ({CH2CO}-F[NMeA]NPHL[Sar]WS[Trp(7-aza)][NMeNle][NMeNle]RCG-NH2; thioether N-14),> 30.5 nM,> 74.3 nM
CCCC[C@H]1C(=O)N(C)[C@@H](CCCC)C(=O)N[C@@H](CCCNC(=N)N)C(=O)N[C@H](C(=O)NCC(N)=O)CSCC(=O)N[C@@H](Cc2ccccc2)C(=O)N(C)[C@@H](C)C(=O)N[C@@H](CC(N)=O)C(=O)N2CCC[C@H]2C(=O)N[C@@H](Cc2cnc[nH]2)C(=O)N[C@@H](CC(C)C)C(=O)N(C)CC(=O)N[C@@H](Cc2c[nH]c3ccccc23)C(=O)N[C@@H](CO)C(=O)NC(Cc2c[nH]c3ccc(F)cc23)C(=O)N1C (some centres unmarked) [Example 1039] ({CH2CO}-F[NMeA]NPHL[Sar]WS[ξTrp(5-F)][NMeNle][NMeNle]RCG-NH2; thioether N-14),> 30.5 nM,4.78 to 72.9 nM

# Further lines, results first:
IC50 (Human PD-L1/PD-1),IC50 [1],Structure (SMILES)
> 30.5 nM,> 74.3 nM,CCCC[C@H]1C(=O)N(C)[C@@H](CCCC)C(=O)N[C@@H](CCCNC(=N)N)C(=O)N[C@H](C(=O)NCC(N)=O)CSCC(=O)N[C@@H](Cc2ccccc2)C(=O)N(C)[C@@H](C)C(=O)N[C@@H](CC(N)=O)C(=O)N2CCC[C@H]2C(=O)N[C@@H](Cc2cnc[nH]2)C(=O)N[C@@H](CC(C)C)C(=O)N(C)CC(=O)N[C@@H](Cc2c[nH]c3ccc(Cl)cc23)C(=O)N[C@@H](CO)C(=O)N[C@@H](Cc2c[nH]c3ccc(Cl)cc23)C(=O)N1C [Example 1024] ({CH2CO}-F[NMeA]NPHL[Sar][Trp(5-Cl)]S[Trp(5-Cl)][NMeNle][NMeNle]RCG-NH2; thioether N-14)
> 30.5 nM,> 74.3 nM,CCCC[C@H]1C(=O)N(C)[C@@H](CCCC)C(=O)N[C@@H](CCCNC(=N)N)C(=O)N[C@H](C(=O)NCC(N)=O)CSCC(=O)N[C@@H](Cc2ccccc2)C(=O)N(C)[C@@H](C)C(=O)N[C@@H](CC(N)=O)C(=O)N2CCC[C@H]2C(=O)N[C@@H](Cc2cnc[nH]2)C(=O)N[C@@H](CC(C)C)C(=O)N(C)CC(=O)N[C@@H](Cc2c[nH]c3ccc(Cl)cc23)C(=O)N[C@@H](CO)C(=O)N[C@@H](Cc2c[nH]c3ccccc23)C(=O)N1C [Example 1026] ({CH2CO}-F[NMeA]NPHL[Sar][Trp(5-Cl)]SW[NMeNle][NMeNle]RCG-NH2; thioether N-14)
6.76 to 30.3 nM,0.158 to 4.71 nM,CCCC[C@H]1C(=O)N(C)[C@@H](CCCC)C(=O)N[C@@H](CCCNC(=N)N)C(=O)N[C@H](C(=O)NCC(N)=O)CSCC(=O)N[C@@H](Cc2ccc(O)cc2)C(=O)N(C)[C@@H](C)C(=O)N[C@@H](CC(N)=O)C(=O)N2CCC[C@H]2C(=O)N[C@@H](Cc2cnc[nH]2)C(=O)N[C@@H](CC(C)C)C(=O)N2C[C@H](O)C[C@H]2C(=O)N[C@@H](Cc2c[nH]c3ccccc23)C(=O)N[C@@H](CO)C(=O)N[C@@H](Cc2csc3ccccc23)C(=O)N1C [Example 1035] ({CH2CO}-Y[NMeA]NPHL[Hyp]WS[Bta][NMeNle][NMeNle]RCG-NH2; thioether N-14)
6.76 to 30.3 nM,0.158 to 4.71 nM,"CCCC[C@H]1C(=O)N(C)[C@@H](CCCC)C(=O)N[C@@H](CCCNC(=N)N)C(=O)N[C@H](C(=O)NCC(N)=O)CSCC(=O)N[C@@H](Cc2ccc(O)cc2)C(=O)N(C)[C@@H](C)C(=O)N[C@@H](CC(N)=O)C(=O)N2CCC[C@H]2C(=O)N[C@@H](Cc2cnc[nH]2)C(=O)N[C@@H](CC(C)C)C(=O)N2CC(F)(F)C[C@H]2C(=O)N[C@@H](Cc2c[nH]c3ccccc23)C(=O)N[C@@H](CO)C(=O)N[C@@H](Cc2csc3ccccc23)C(=O)N1C [Example 1036] ({CH2CO}-Y[NMeA]NPHL[Pro(4,4-F2)]WS[Bta][NMeNle][NMeNle]RCG-NH2; thioether N-14)"
6.76 to 30.3 nM,0.158 to 4.71 nM,CCCC[C@H]1C(=O)N(C)[C@@H](CCCC)C(=O)N[C@@H](CCCNC(=N)N)C(=O)N[C@H](C(=O)NCC(N)=O)CSCC(=O)N[C@@H](Cc2ccc(O)cc2)C(=O)N(C)[C@@H](C)C(=O)N[C@@H](CC(N)=O)C(=O)N2CCC[C@H]2C(=O)N[C@@H](Cc2cnc[nH]2)C(=O)N[C@@H](CC(C)C)C(=O)N2C[C@@H](N)C[C@H]2C(=O)N[C@@H](Cc2c[nH]c3ccccc23)C(=O)N[C@@H](CO)C(=O)N[C@@H](Cc2csc3ccccc23)C(=O)N1C [Example 1037] ({CH2CO}-Y[NMeA]NPHL[Pro(4S-NH2)]WS[Bta][NMeNle][NMeNle]RCG-NH2; thioether N-14)
